US9409952B2, “Peptide-compound cyclization method” (Chugai Seiyaku Kabushiki Kaisha, priority 2011, dated 2016)
Where two headings read alike, the source gives them in different places. Starred links: 1 amine or outer side, 2 acyl side, 3 side chain; linkers in the order of their positions; H or OH if unused. Positions of bridges follow the written chain, without caps; N, C: chain ends. Non-standard residues stand in square brackets, D forms with d. Residues, ends and D or L forms follow the SMILES beside them. *: point of attachment. Ala(1H-tetrazol-5-yl) = N[C@@H](Cc1nnn[nH]1)C(=O)O; Arg(Me2s) = CN=C(NC)NCCC[C@H](N)C(=O)O; Lys(Me2) = CN(C)CCCC[C@H](N)C(=O)O; NMeF = CN[C@@H](Cc1ccccc1)C(=O)O; NMeβAla = CN(CCC(=O)[*:2])[*:1]; NMeL = CN[C@@H](CC(C)C)C(=O)O; NMeV = CN[C@H](C(=O)O)C(C)C; NMeA = CN[C@@H](C)C(=O)O; Piperidide = C1CCN(*)CC1; Sar = CNCC(=O)O

Assay: PAMPA (parallel artificial membrane permeability assay)
Format: in vitro ADME
Conditions: PAMPA
Outline: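 Artificial membrane was 10% (w/v) egg lecithin plus 0.5% (w/v) cholesterol in dodecane on a PVDF filter. A 10 mM DMSO stock was added at 0.5% (v/v) to donor buffer (50 mM MOPSO, pH 6.5, 5.0% glycocholic acid). After 18 h at 37 °C, LC/MS or LC/UV gave donor and acceptor levels for Pe.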

[1] = membrane permeation rate (Pe), 50 mM MOPSO buffer pH 6.5 with 5.0% glycocholic acid, 37° C., 18 hours, read-out: iPAMPA Pe

Row | Compound | Papp at 18 hours, 50 µM [1] [×10⁻⁶ cm/s] | Papp at 18 hours, 50 µM (pH 6.5) [×10⁻⁶ cm/s]
1 | CC[C@H](C)[C@@H]1NC(=O)[C@H](Cc2ccccc2)N(C)C(=O)[C@H](CC(C)C)N(C)C(=O)[C@H](Cc2ccccc2)NC(=O)[C@H]([C@@H](C)O)NC(=O)[C@H](CC(C)C)N(C)C(=O)[C@H](CC(C)C)NC(=O)CCN(C)C(=O)C[C@@H](C(=O)N2CCCCC2)NC(=O)[C@H](CC(C)C)N(C)C1=O [DP-336] ([NMeβAla]L[NMeL]TF[NMeL][NMeF]I[NMeL]D-Piperidide; lactam N-10) | 35 | 
2 | C/N=C(\NC)NCCC[C@@H]1NC(=O)[C@H](CC(C)C)N(C)C(=O)[C@H](Cc2ccccc2)N(C)C(=O)[C@H](C)N(C)C(=O)[C@@H](C(C)C)NC(=O)C[C@@H](C(=O)N(C)[C@@H](Cc2ccccc2)C(=O)N[C@@H](C)C(=O)N2CCCCC2)NC(=O)[C@H](CC(C)C)N(C)C(=O)[C@H](CC(C)C)N(C)C(=O)[C@H](C(C)C)NC(=O)CN(C)C1=O [DP-590] ([dV][NMeA][NMeF][NMeL][Arg(Me2s)][Sar]V[NMeL][NMeL]D[NMeF]A-Piperidide; lactam N-10) | 1.4 | 
3 | CC(C)C[C@H]1C(=O)N[C@H](C(=O)N(C)[C@@H](Cc2ccccc2)C(=O)N[C@@H](C)C(=O)N2CCCCC2)CC(=O)N(C)[C@@H](C)C(=O)N[C@@H]([C@@H](C)O)C(=O)N(C)[C@@H](Cc2ccccc2)C(=O)N(C)[C@@H](CC(C)C)C(=O)N(C)[C@@H](CC(C)C)C(=O)N[C@@H](C)C(=O)N(C)[C@@H](Cc2ccccc2)C(=O)N(C)[C@@H](CC(C)C)C(=O)N1C [DP-192] ([NMeA]T[NMeF][NMeL][NMeL]A[NMeF][NMeL][NMeL]D[NMeF]A-Piperidide; lactam N-10) | 0.64 | 
4 | CC[C@H](C)[C@@H]1NC(=O)[C@H](Cc2ccccc2)N(C)C(=O)[C@H]([C@@H](C)O)NC(=O)[C@H](C)NC(=O)C[C@@H](C(=O)N(C)[C@@H](Cc2ccccc2)C(=O)N(C)[C@@H](Cc2ccccc2)C(=O)N[C@@H](C)C(=O)N2CCCCC2)NC(=O)[C@H](CC(C)C)N(C)C(=O)[C@H](CC(C)C)N(C)C(=O)[C@H](Cc2ccccc2)N(C)C(=O)[C@H](CC(C)C)N(C)C(=O)[C@H](C)N(C)C1=O [DP-286] (AT[NMeF]I[NMeA][NMeL][NMeF][NMeL][NMeL]D[NMeF][NMeF]A-Piperidide; lactam N-10) |  | 0.24
5 | CC[C@H](C)[C@@H]1NC(=O)[C@H](C)NC(=O)C[C@@H](C(=O)N(C)[C@@H](Cc2ccccc2)C(=O)N[C@@H](C)C(=O)N2CCCCC2)NC(=O)[C@H](Cc2ccccc2)N(C)C(=O)[C@H](CC(C)C)N(C)C(=O)[C@H](C)N(C)C(=O)[C@H]([C@@H](C)O)NC(=O)[C@H](Cc2ccccc2)N(C)C(=O)[C@H](CC(C)C)N(C)C(=O)[C@H](C)N(C)C(=O)[C@H](CC(C)C)N(C)C1=O [DP-178] (AI[NMeL][NMeA][NMeL][NMeF]T[NMeA][NMeL][NMeF]D[NMeF]A-Piperidide; lactam N-11) | 1 | 
6 | CC(C)C[C@@H]1NC(=O)[C@H](CC(C)C)N(C)C(=O)[C@H](CCCCN(C)C)NC(=O)[C@H](CC(C)C)N(C)C(=O)[C@H](Cc2ccccc2)N(C)C(=O)[C@H](CC(C)C)N(C)C(=O)[C@@H](C(C)C)NC(=O)C[C@@H](C(=O)N(C)[C@@H](Cc2ccccc2)C(=O)N[C@@H](C)C(=O)N2CCCCC2)NC(=O)[C@H](CC(C)C)N(C)C(=O)[C@H](CC(C)C)N(C)C1=O [DP-588] ([dV][NMeL][NMeF][NMeL][Lys(Me2)][NMeL]L[NMeL][NMeL]D[NMeF]A-Piperidide; lactam N-10) | 0.6 | 
7 | CC(C)[C@@H]1NC(=O)[C@H](Cc2ccccc2)N(C)C(=O)[C@H](C)N(C)C(=O)[C@H]([C@@H](C)O)NC(=O)CNC(=O)[C@H](C)N(C)C(=O)[C@H](Cc2ccccc2)NC(=O)[C@H](C)N(C)C(=O)C[C@@H](C(=O)N(C)[C@@H](Cc2ccccc2)C(=O)N(C)[C@@H](Cc2ccccc2)C(=O)N[C@@H](C)C(=O)N2CCCCC2)NC(=O)[C@H](C(C)C)N(C)C1=O [DP-393] ([NMeA]F[NMeA]GT[NMeA][NMeF]V[NMeV]D[NMeF][NMeF]A-Piperidide; lactam N-10) | 18 | 
8 | CC(C)C[C@H]1C(=O)N[C@H](C(=O)N(C)[C@@H](Cc2ccccc2)C(=O)N(C)[C@@H](Cc2ccccc2)C(=O)N[C@@H](C)C(=O)N2CCCCC2)CC(=O)N[C@H](C(C)C)C(=O)N(C)[C@@H](Cc2ccccc2)C(=O)N(C)[C@@H](CC(C)C)C(=O)N[C@@H]([C@@H](C)O)C(=O)N(C)[C@@H](C)C(=O)N(C)[C@@H](CC(C)C)C(=O)N[C@@H](C(C)C)C(=O)N1C [DP-210] ([dV][NMeF][NMeL]T[NMeA][NMeL]V[NMeL]D[NMeF][NMeF]A-Piperidide; lactam N-9) | 1.8 | 
9 | CC(C)C[C@@H]1NC(=O)[C@H](Cc2ccccc2)N(C)C(=O)[C@H](Cc2ccccc2)N(C)C(=O)[C@H](C(C)C)NC(=O)[C@H](CC(C)C)N(C)C(=O)[C@H](Cc2nn[nH]n2)NC(=O)[C@H](CC(C)C)N(C)C(=O)C[C@@H](C(=O)N2CCCCC2)NC(=O)[C@H](CC(C)C)N(C)C1=O [DP-907] ([NMeL][Ala(1H-tetrazol-5-yl)][NMeL]V[NMeF][NMeF]L[NMeL]D-Piperidide; lactam N-9) | 21 | 
10 | CC[C@H](C)[C@H](NC(=O)[C@H](C)N(C)C(=O)[C@@H](NC(=O)[C@H](Cc1ccccc1)N(C)C(=O)[C@H](CC(C)C)N(C)C(=O)[C@@H]1CC(=O)N[C@H](C)C(=O)N[C@@H](C(C)C)C(=O)N(C)[C@@H](Cc2ccccc2)C(=O)N(C)[C@@H](CC(C)C)C(=O)N(C)[C@@H](C)C(=O)N[C@@H]([C@@H](C)O)C(=O)N[C@@H](Cc2ccccc2)C(=O)N1)C(C)C)C(=O)N1CCCCC1 [DP-570] ([dA]V[NMeF][NMeL][NMeA]TFD[NMeL][NMeF]V[NMeA]I-Piperidide; lactam N-8) | 2.1 | 
11 | CC(C)C[C@H]1C(=O)N(C)[C@@H](Cc2ccccc2)C(=O)N(C)[C@@H](CC(C)C)C(=O)N[C@H](C(=O)N(C)[C@@H](Cc2ccccc2)C(=O)N[C@@H](Cc2ccccc2)C(=O)N2CCCCC2)CC(=O)N[C@H](C(C)C)C(=O)N[C@@H](C)C(=O)N[C@@H]([C@@H](C)O)C(=O)N(C)[C@@H](C)C(=O)N[C@@H](Cc2ccccc2)C(=O)N1C [DP-577] ([dV]AT[NMeA]F[NMeL][NMeF][NMeL]D[NMeF]F-Piperidide; lactam N-9) | 0.94 | 
12 | CC(C)C[C@H]1C(=O)N(C)[C@@H](CC(C)C)C(=O)N[C@H](C(=O)N(C)[C@@H](Cc2ccccc2)C(=O)N[C@@H](C)C(=O)N2CCCCC2)CC(=O)N[C@H](C(C)C)C(=O)N(C)[C@@H](C)C(=O)N(C)[C@@H](Cc2ccccc2)C(=O)N(C)[C@@H](CC(C)C)C(=O)N[C@@H](Cc2c[nH]cn2)C(=O)N(C)CC(=O)N[C@@H](C(C)C)C(=O)N1C [DP-585] ([dV][NMeA][NMeF][NMeL]H[Sar]V[NMeL][NMeL]D[NMeF]A-Piperidide; lactam N-10) | 15 | 
13 | CC(C)C[C@H]1C(=O)N[C@H](C(=O)N(C)[C@@H](Cc2ccccc2)C(=O)N(C)[C@@H](Cc2ccccc2)C(=O)N[C@@H](C)C(=O)N2CCCCC2)CC(=O)N(C)[C@@H](C)C(=O)N(C)[C@@H](C)C(=O)N(C)[C@@H](Cc2ccccc2)C(=O)N[C@@H]([C@@H](C)O)C(=O)N(C)[C@@H](C)C(=O)N(C)[C@@H](CC(C)C)C(=O)N(C)[C@@H](CC(C)C)C(=O)N[C@@H](C(C)C)C(=O)N1C [DP-206] ([NMeA][NMeA][NMeF]T[NMeA][NMeL][NMeL]V[NMeL]D[NMeF][NMeF]A-Piperidide; lactam N-10) | 9 | 
